Earlier results in patent US20130079342A1, “HETEROCYCLIC COMPOUNDS AND THEIR USES” (priority 2011, published 2013).

Experiments:
[1] = tested on: systemic lupus erythematosis model; conditions: in vivo
[2] = tested on: rheumatoid arthritis model; conditions: in vivo
[3] = tested on: ovalbumin-induced airway inflammation
p110δ = molecular target: T1, p110δ (Homo sapiens, UniProt O00329)
T1 sequence (O00329 1-1044): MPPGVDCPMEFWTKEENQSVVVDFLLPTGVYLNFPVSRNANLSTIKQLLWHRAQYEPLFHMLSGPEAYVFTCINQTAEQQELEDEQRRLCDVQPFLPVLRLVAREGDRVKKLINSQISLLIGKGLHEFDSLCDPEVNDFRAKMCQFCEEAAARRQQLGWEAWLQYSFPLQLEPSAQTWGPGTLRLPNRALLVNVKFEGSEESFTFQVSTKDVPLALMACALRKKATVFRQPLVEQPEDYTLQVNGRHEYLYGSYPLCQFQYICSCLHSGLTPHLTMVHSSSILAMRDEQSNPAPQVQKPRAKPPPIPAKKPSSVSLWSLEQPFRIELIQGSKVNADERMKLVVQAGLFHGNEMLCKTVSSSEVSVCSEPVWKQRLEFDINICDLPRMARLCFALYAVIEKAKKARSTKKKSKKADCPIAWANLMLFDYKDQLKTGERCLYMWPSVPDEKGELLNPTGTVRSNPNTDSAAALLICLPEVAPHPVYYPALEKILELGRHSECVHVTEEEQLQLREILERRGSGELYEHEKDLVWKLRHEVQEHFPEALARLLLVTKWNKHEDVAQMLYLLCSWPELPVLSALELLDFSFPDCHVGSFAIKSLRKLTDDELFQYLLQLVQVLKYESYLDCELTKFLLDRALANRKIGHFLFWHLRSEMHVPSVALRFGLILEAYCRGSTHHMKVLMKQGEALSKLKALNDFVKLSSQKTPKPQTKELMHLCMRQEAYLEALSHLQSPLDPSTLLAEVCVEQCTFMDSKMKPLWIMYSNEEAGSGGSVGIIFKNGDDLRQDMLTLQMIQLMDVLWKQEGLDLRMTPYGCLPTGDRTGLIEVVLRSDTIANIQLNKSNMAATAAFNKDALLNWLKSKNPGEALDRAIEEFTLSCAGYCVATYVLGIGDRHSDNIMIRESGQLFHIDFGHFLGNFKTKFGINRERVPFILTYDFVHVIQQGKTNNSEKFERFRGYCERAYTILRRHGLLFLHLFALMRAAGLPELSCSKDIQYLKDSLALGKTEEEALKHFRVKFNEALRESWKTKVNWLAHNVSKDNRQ

Row | Compound | onset of disease in a model of systemic lupus erythematosis [1] | efficacy in a mouse model of rheumatoid arthritis [2] | inflammation and disease in a murine model of asthma [3] | activity against any protein kinases tested (protein kinases) | inhibition of p110δ (p110δ)
1 | O=C1NC(=O)/C(=C\c2ccc3nccnc3c2)S1 [AS 605240] | delay onset of disease | efficacious | – | – | –
2 | Cc1ccccc1-n1c(Cn2cnc3c(N)ncnc32)nc2cccc(C)c2c1=O [IC87114] | – | – | significantly ameliorate inflammation and disease | no activity | high nanomolar range (triple digit)
